What was measured:
Assay type in all cases: cell-based
[1] = test system: IFN-g secretion from T cells in human whole blood; details: read-out: WB (IFNg) IC50 (nM, Avg)
[2] = molecular target: hKv1.3 (Homo sapiens, UniProt P22001); assay: cell-based; details: Kv1.3 (IWQ) IC50 (nM, Avg)
[3] = test system: IL-2 secretion from T cells in human whole blood; details: read-out: WB (IL-2) IC50 (nM, Avg)

Chain of hKv1.3 (P22001 whole entry): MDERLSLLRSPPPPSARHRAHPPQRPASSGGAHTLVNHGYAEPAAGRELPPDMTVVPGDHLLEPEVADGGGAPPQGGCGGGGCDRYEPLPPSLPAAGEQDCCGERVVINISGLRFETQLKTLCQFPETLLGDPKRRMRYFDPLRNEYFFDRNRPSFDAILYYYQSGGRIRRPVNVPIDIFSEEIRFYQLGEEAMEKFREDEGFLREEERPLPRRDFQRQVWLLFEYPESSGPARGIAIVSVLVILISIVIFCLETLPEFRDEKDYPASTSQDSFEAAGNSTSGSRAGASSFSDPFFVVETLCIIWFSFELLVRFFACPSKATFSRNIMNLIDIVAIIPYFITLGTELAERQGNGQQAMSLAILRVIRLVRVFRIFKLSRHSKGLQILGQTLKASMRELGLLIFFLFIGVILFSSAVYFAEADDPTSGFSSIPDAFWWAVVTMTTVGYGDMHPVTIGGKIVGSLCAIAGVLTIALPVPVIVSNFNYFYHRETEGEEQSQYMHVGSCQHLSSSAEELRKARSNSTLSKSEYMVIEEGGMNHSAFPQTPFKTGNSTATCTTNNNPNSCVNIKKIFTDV

Row | SMILES | IC50 [1] [nM] | IC50 [2] [nM] | IC50 [3] [nM]
1 | CC[C@H](C)[C@@H]1NC(=O)[C@H]([C@@H](C)O)NC(=O)[C@H](CC(=O)O)NC(=O)[C@H](CCC(=O)O)NC(=O)[C@@H](NC(=O)[C@H](CO)NC(=O)[C@@H](N)CCCNC(=N)N)CSSC[C@@H](C(N)=O)NC(=O)[C@H]([C@@H](C)O)NC(=O)CNC(=O)[C@@H]2CSSC[C@@H]3NC(=O)[C@H](CCCCN)NC(=O)[C@H](Cc4ccccc4)NC(=O)[C@H](C)NC(=O)[C@H]([C@@H](C)O)NC(=O)[C@H](CSSC[C@H](NC(=O)[C@H](Cc4ccccc4)NC(=O)[C@H](CO)NC(=O)[C@H](CC(C)C)NC(=O)[C@H](CCCNC(=N)N)NC(=O)[C@H](Cc4ccc(O)cc4)NC(=O)[C@H](CCCCN)NC(=O)[C@H]([C@@H](C)O)NC(=O)[C@H](CO)NC(=O)[C@H](Cc4c[nH]cn4)NC(=O)[C@H](CCCCN)NC3=O)C(=O)N[C@@H](CCCNC(=N)N)C(=O)N[C@@H](CCCCN)C(=O)N[C@@H]([C@@H](C)O)C(=O)N2)NC(=O)[C@H](CCCNC(=N)N)NC(=O)[C@H](CO)NC(=O)[C@H](CCCCN)NC(=O)[C@@H]2CCCN2C1=O [[Glu4, Lys16,Thr21]ShK-amide] | 3.94 | 0.085 | 1.38
2 | CC[C@H](C)[C@@H]1NC(=O)[C@@H](NC(=O)[C@H](CO)NC(=O)[C@@H](N)CCCNC(=N)N)CSSC[C@@H](C(=O)O)NC(=O)[C@H]([C@@H](C)O)NC(=O)CNC(=O)[C@@H]2CSSC[C@@H]3NC(=O)[C@H](CCC(N)=O)NC(=O)[C@H](CCCNC(=N)N)NC(=O)[C@H](C)NC(=O)[C@H]([C@@H](C)O)NC(=O)[C@H](CSSC[C@H](NC(=O)[C@H](Cc4ccccc4)NC(=O)[C@H](CO)NC(=O)[C@H](CC(C)C)NC(=O)[C@H](CCCNC(=N)N)NC(=O)[C@H](Cc4ccc(O)cc4)NC(=O)[C@H](CCCCN)NC(=O)[C@H](CCSC)NC(=O)[C@H](CO)NC(=O)[C@H](Cc4c[nH]cn4)NC(=O)[C@H](CCCCN)NC3=O)C(=O)N[C@@H](CCCNC(=N)N)C(=O)N[C@@H](CCCCN)C(=O)N[C@@H]([C@@H](C)O)C(=O)N2)NC(=O)[C@H](CCCNC(=N)N)NC(=O)[C@H](CO)NC(=O)[C@H](CCCCN)NC(=O)[C@@H]2CCCN2C(=O)[C@H]([C@@H](C)CC)NC(=O)[C@H]([C@@H](C)O)NC(=O)[C@H](CC(=O)O)NC1=O [[Arg15]ShK] | 0.204 | 0.088 | 0.162
3 | CC[C@H](C)[C@@H]1NC(=O)[C@@H](NC(=O)[C@H](CO)NC(=O)[C@@H](N)CCCNC(=N)N)CSSC[C@@H](C(N)=O)NC(=O)[C@H]([C@@H](C)O)NC(=O)CNC(=O)[C@@H]2CSSC[C@@H]3NC(=O)[C@H](CCCCN)NC(=O)[C@H](Cc4ccccc4)NC(=O)[C@H](C)NC(=O)[C@H]([C@@H](C)O)NC(=O)[C@H](CSSC[C@H](NC(=O)[C@H](Cc4ccccc4)NC(=O)[C@H](CO)NC(=O)[C@H](CC(C)C)NC(=O)[C@H](CCCNC(=N)N)NC(=O)[C@H](Cc4ccc(O)cc4)NC(=O)[C@H](CCCCN)NC(=O)[C@H](CCSC)NC(=O)[C@H](CO)NC(=O)[C@H](Cc4c[nH]cn4)NC(=O)[C@H](CCCCN)NC3=O)C(=O)N[C@@H](CCCNC(=N)N)C(=O)N[C@@H](CCCNC(=N)N)C(=O)N[C@@H]([C@@H](C)O)C(=O)N2)NC(=O)[C@H](CCCNC(=N)N)NC(=O)[C@H](CO)NC(=O)[C@H](CCCCN)NC(=O)[C@@H]2CCCN2C(=O)[C@H]([C@@H](C)CC)NC(=O)[C@H]([C@@H](C)O)NC(=O)[C@H](CC(=O)O)NC1=O [[Lys16,Arg30]ShK-amide] | 0.236 | 0.129 | 0.151
4 | CC[C@H](C)[C@@H]1NC(=O)[C@@H](NC(=O)[C@H](CO)NC(=O)[C@@H](N)CCCNC(=N)N)CSSC[C@@H](C(=O)O)NC(=O)[C@H]([C@@H](C)O)NC(=O)CNC(=O)[C@@H]2CSSC[C@@H]3NC(=O)[C@H](CCC(N)=O)NC(=O)[C@H](Cc4ccccc4)NC(=O)[C@H](C)NC(=O)[C@H]([C@@H](C)O)NC(=O)[C@H](CSSC[C@H](NC(=O)[C@H](Cc4ccccc4)NC(=O)[C@H](CO)NC(=O)[C@H](CC(C)C)NC(=O)[C@H](CCCNC(=N)N)NC(=O)[C@H](Cc4ccc(O)cc4)NC(=O)[C@H](CCCCN)NC(=O)[C@H](CCSC)NC(=O)[C@H](CO)NC(=O)[C@H](Cc4c[nH]cn4)NC(=O)[C@H](CCCCN)NC3=O)C(=O)N[C@@H](CCCNC(=N)N)C(=O)N[C@@H](CCCCN)C(=O)N[C@@H]([C@@H](C)O)C(=O)N2)NC(=O)[C@H](CCCNC(=N)N)NC(=O)[C@H](CO)NC(=O)[C@H](CCCCN)NC(=O)[C@H](CCCNC(=N)N)NC(=O)[C@H]([C@@H](C)CC)NC(=O)[C@H]([C@@H](C)O)NC(=O)[C@H](CC(=O)O)NC1=O [[Arg8]ShK] | 1.42 | 0.07 | 0.187
5 | CC[C@H](C)[C@@H]1NC(=O)[C@@H](NC(=O)[C@H](CO)NC(=O)[C@@H](N)CCCNC(=N)N)CSSC[C@@H](C(=O)O)NC(=O)[C@H]([C@@H](C)O)NC(=O)CNC(=O)[C@@H]2CSSC[C@@H]3NC(=O)[C@H](CCCCN)NC(=O)[C@H](Cc4ccccc4)NC(=O)[C@H](C)NC(=O)[C@H]([C@@H](C)O)NC(=O)[C@H](CSSC[C@H](NC(=O)[C@H](Cc4ccccc4)NC(=O)[C@H](CO)NC(=O)[C@H](CC(C)C)NC(=O)[C@H](CCCNC(=N)N)NC(=O)[C@H](Cc4ccc(O)cc4)NC(=O)[C@H](CCCCN)NC(=O)[C@H](C)NC(=O)[C@H](CO)NC(=O)[C@H](Cc4c[nH]cn4)NC(=O)[C@H](CCCCN)NC3=O)C(=O)N[C@@H](CCCNC(=N)N)C(=O)N[C@@H](CCCCN)C(=O)N[C@@H]([C@@H](C)O)C(=O)N2)NC(=O)[C@H](CCCNC(=N)N)NC(=O)[C@H](CO)NC(=O)[C@H](CCCCN)NC(=O)[C@@H]2CCCN2C(=O)[C@H]([C@@H](C)CC)NC(=O)[C@H]([C@@H](C)O)NC(=O)[C@H](CC(=O)O)NC1=O [[Lys16,A1a21]ShK] | 1.33 | 0.076 | 0.872
6 | CC[C@H](C)[C@@H]1NC(=O)[C@@H](NC(=O)[C@H](CO)NC(=O)[C@@H](N)CCCNC(=N)N)CSSC[C@@H](C(N)=O)NC(=O)[C@H]([C@@H](C)O)NC(=O)CNC(=O)[C@@H]2CSSC[C@@H]3NC(=O)[C@H](CCCCN)NC(=O)[C@H](Cc4ccccc4)NC(=O)[C@H](C)NC(=O)[C@H]([C@@H](C)O)NC(=O)[C@H](CSSC[C@H](NC(=O)[C@H](Cc4ccccc4)NC(=O)[C@H](CO)NC(=O)[C@H](CC(C)C)NC(=O)[C@H](CCCNC(=N)N)NC(=O)[C@H](Cc4ccc(O)cc4)NC(=O)[C@H](CCCCN)NC(=O)[C@H](CCSC)NC(=O)[C@H](CO)NC(=O)[C@H](Cc4c[nH]cn4)NC(=O)[C@H](CCCCN)NC3=O)C(=O)N[C@@H](CCCNC(=N)N)C(=O)N[C@@H](CCC(=O)O)C(=O)N[C@@H]([C@@H](C)O)C(=O)N2)NC(=O)[C@H](CCCNC(=N)N)NC(=O)[C@H](CO)NC(=O)[C@H](CCCCN)NC(=O)[C@@H]2CCCN2C(=O)[C@H]([C@@H](C)CC)NC(=O)[C@H]([C@@H](C)O)NC(=O)[C@H](CC(=O)O)NC1=O [[Lys16, Glu30]ShK-amide] | 0.144 | 0.028 | 0.105
7 | CC[C@H](C)[C@@H]1NC(=O)[C@@H](NC(=O)[C@H](CO)NC(=O)[C@@H](N)CCCNC(=N)N)CSSC[C@@H](C(=O)O)NC(=O)[C@H]([C@@H](C)O)NC(=O)CNC(=O)[C@@H]2CSSC[C@@H]3NC(=O)[C@H](CCC(N)=O)NC(=O)[C@H](Cc4ccccc4)NC(=O)[C@H](C)NC(=O)[C@H]([C@@H](C)O)NC(=O)[C@H](CSSC[C@H](NC(=O)[C@H](Cc4ccccc4)NC(=O)[C@H](CO)NC(=O)[C@H](CC(C)C)NC(=O)[C@H](CCCNC(=N)N)NC(=O)[C@H](Cc4ccc(O)cc4)NC(=O)[C@H](CCCCN)NC(=O)[C@H](CCSC)NC(=O)[C@H](CO)NC(=O)[C@H](Cc4c[nH]cn4)NC(=O)[C@H](CCCCN)NC3=O)C(=O)N[C@@H](CCCNC(=N)N)C(=O)N[C@@H](CCCCN)C(=O)N[C@@H]([C@@H](C)O)C(=O)N2)NC(=O)[C@H](CCCNC(=N)N)NC(=O)[C@H](CO)NC(=O)[C@H](CCCCN)NC(=O)[C@@H]2CCCN2C(=O)[C@H](CCCCN)NC(=O)[C@H]([C@@H](C)O)NC(=O)[C@H](CC(=O)O)NC1=O [[Lys7]ShK] | 13.5 | 0.792 | 4.67
8 | CC[C@H](C)[C@@H]1NC(=O)[C@@H](NC(=O)[C@H](CO)NC(=O)[C@@H](N)CCCNC(=N)N)CSSC[C@@H](C(=O)O)NC(=O)[C@H]([C@@H](C)O)NC(=O)CNC(=O)[C@@H]2CSSC[C@@H]3NC(=O)[C@H](CCC(N)=O)NC(=O)[C@H](Cc4ccccc4)NC(=O)[C@H](C)NC(=O)[C@H]([C@@H](C)O)NC(=O)[C@H](CSSC[C@H](NC(=O)[C@H](Cc4ccccc4)NC(=O)[C@H](CO)NC(=O)[C@H](CC(C)C)NC(=O)[C@H](CCCNC(=N)N)NC(=O)[C@H](Cc4ccc(O)cc4)NC(=O)[C@H](CCCCN)NC(=O)[C@H](CCSC)NC(=O)[C@H](CO)NC(=O)[C@H](Cc4c[nH]cn4)NC(=O)[C@H](CCCCN)NC3=O)C(=O)N[C@@H](CCCNC(=N)N)C(=O)N[C@@H](CCCCN)C(=O)N[C@@H]([C@@H](C)O)C(=O)N2)NC(=O)[C@H](CCCNC(=N)N)NC(=O)[C@H](CO)NC(=O)[C@H](CCCCN)NC(=O)[C@@H]2CCCN2C(=O)[C@H]([C@@H](C)CC)NC(=O)[C@H](CCCNC(=N)N)NC(=O)[C@H](CC(=O)O)NC1=O [[Arg6]ShK] | 0.4 | 0.178 | 0.246
9 | CC[C@H](C)[C@@H]1NC(=O)[C@@H](NC(=O)[C@H](CO)NC(=O)[C@@H](N)CCCNC(=N)N)CSSC[C@@H](C(=O)O)NC(=O)[C@H]([C@@H](C)O)NC(=O)CNC(=O)[C@@H]2CSSC[C@@H]3NC(=O)[C@H](CCCNC(=N)N)NC(=O)[C@H](Cc4ccccc4)NC(=O)[C@H](C)NC(=O)[C@H]([C@@H](C)O)NC(=O)[C@H](CSSC[C@H](NC(=O)[C@H](Cc4ccccc4)NC(=O)[C@H](CO)NC(=O)[C@H](CC(C)C)NC(=O)[C@H](CCCNC(=N)N)NC(=O)[C@H](Cc4ccc(O)cc4)NC(=O)[C@H](CCCCN)NC(=O)[C@H](CCSC)NC(=O)[C@H](CO)NC(=O)[C@H](Cc4c[nH]cn4)NC(=O)[C@H](CCCCN)NC3=O)C(=O)N[C@@H](CCCNC(=N)N)C(=O)N[C@@H](CCCCN)C(=O)N[C@@H]([C@@H](C)O)C(=O)N2)NC(=O)[C@H](CCCNC(=N)N)NC(=O)[C@H](CO)NC(=O)[C@H](CCCCN)NC(=O)[C@@H]2CCCN2C(=O)[C@H]([C@@H](C)CC)NC(=O)[C@H]([C@@H](C)O)NC(=O)[C@H](CC(=O)O)NC1=O [[Arg16]ShK] | 0.818 | 0.164 | 0.652

Source: patent US20120121591A1 (priority 2009, published 2012)
